Results as given in patent publication US11116740B2, “Methods for use in support of planned supplement and food ingredient products for diagnosis and treatment of metabolic syndrome” (priority 2015, dated 2021).

What was measured:
[1] = Serum fatty acid profile (% serum fatty acids, GC/MS), feeding study; format: in vivo, bottlenose dolphin (Tursiops truncatus)
Experimental: The dolphins started on a 100% capelin diet.
Changes in percent serum for the targeted fatty acids (C17:0, C20:4n6, and C22:0), as well as insulin, glucose, triglycerides, iron, transferrin saturation, and ferritin, were assessed among feeding study dolphins during weeks 3, 6, 12, 18 and 24 and compared to week 0 using pairwise comparison t-tests. Erythrocyte membrane fatty acids were measured during weeks 3, 6, 12, 18, and 24. Serum ferritin in Group A dolphins increased.
Blood was collected into BD Vacutainer serum separator tubes (for insulin, iron, ferritin, serum fatty acids profile, and serum chemistry), EDTA BD Vacutainer blood collection tubes (for erythrocyte fatty acid profile), and Lithium Heparin BD Vacutainer blood collection tubes (for plasma chemistry, including triglycerides). Blood tubes were centrifuged at 3000 rpm for 10 minutes within 30-60 minutes of collection and chilled during processing until shipment. Remaining serum/plasma was transferred to cryovials and stored at −80° C. until shipment on dry ice via overnight courier to the reference laboratories.
Serum and red blood cell membrane fatty acid profiles were performed by the Genetics Laboratories at the Kennedy Krieger Institute. Fatty acids were analyzed by capillary gas chromatography/mass spectrometry of pentaflourobenzyl bromide fatty acid derivatives using an AT-Silar-100 column (Grace, Columbia, Md. 21044) as previously described. For red blood cells only, the lipids were extracted with hexane:isopropanol before analysis. Each run was required to pass clinical laboratory quality control before the data were released. CV % were typically under 10%. Percent fatty acids in serum was used as a sturdier index to help reduce potential variability in serum among study dolphins. Iron, TIBC, and ferritin were analyzed at the Kansas State Veterinary Diagnostic Laboratory by colorimetric analysis on the Roche Cobas Mira (Roche Diagnostics, Indianapolis, Ind. 46250) per the manufacturer's protocol. Plasma triglycerides and glucose were directly measured using the Roche Cobas 8000 system (Roche Diagnostics, Indianapolis, Ind. 46250) per the manufacturers' protocol. Glucose was measured photometrically at the Animal Health Diagnostic Center at Cornell University on the Roche Diagnostics Modular Analytics P Module clinical chemistry analyzer (Roche Diagnostics, Indianapolis, Ind. 46250). Total insulin was analyzed at ARUP Laboratories by ultrafiltration/quantitative chemiluminescent immunoassay on the Siemens ADVIA Centaur Immunoassay system (Siemens Medical Solutions USA, Inc., Malvern, Pa. 19355).

[2] = Serum fatty acid metabolomics (UPLC-MS/MS), feeding study
Experimental: This study examined global metabolic profiles in six dolphins (“Group A dolphins”). The dolphins lived in netted enclosures within San Diego Bay. The dolphins started on a 100% capelin diet. Group A dolphins were fed one-third of their daily diet in the morning after their routine overnight fast and 2h postprandial, in-water, and trained blood samples were drawn (typically near 10:00 a.m.). An additional four dolphins (“Group C dolphins”) were fed the capelin diet.
Two hour post-prandial samples were collected from the dolphins at baseline (week 0) and at four time points following the switch to the modified diet: 6, 12, 18, and 24 weeks. Routine monthly samples collected from four reference dolphins that were housed in the same environment as the Group A dolphins were assessed for glucose, triglycerides, ferritin, and percent serum fatty acids.
Sample Preparation: Samples were prepared using the automated MicroLab STAR® system from Hamilton Company. Several recovery standards were added prior to the first step in the extraction process for QC purposes. Proteins were precipitated with methanol under vigorous shaking for 2 min (Glen Mills GenoGrinder 2000) followed by centrifugation. The resulting extract was divided into five fractions: two for analysis by two separate reverse phase (RP)/UPLC-MS/MS methods with positive ion mode electrospray ionization (ESI), one for analysis by RP/UPLC-MS/MS with negative ion mode ESI, one for analysis by HILIC/UPLC-MS/MS with negative ion mode ESI, and one sample was reserved. Samples were placed briefly on a TurboVap® (Zymark) to remove the organic solvent. The sample extracts were stored overnight under nitrogen before preparation for analysis.
Ultrahigh Performance Liquid Chromatography-Tandem Mass Spectroscopy (UPLC-MS/[…]): Each of four methods utilized a Waters ACQUITY ultra-performance liquid chromatography (UPLC) and a Thermo Scientific Q-Exactive high resolution/accurate mass spectrometer interfaced with a heated electrospray ionization (HESI-II) source and Orbitrap mass analyzer operated at 35,000 mass resolution. A sample extract was dried, then reconstituted in solvents compatible to each of the four methods. Each reconstitution solvent contained a series of standards at fixed concentrations to ensure injection and chromatographic consistency. A first aliquot was analyzed using acidic positive ion conditions, chromatographically optimized for more hydrophilic compounds. In this method, the extract was gradient eluted from a C18 column (Waters UPLC BEH C18-2. 1×100 mm, 1.7 μm) using water and methanol, containing 0.05% perfluoropentanoic acid (PFPA) and 0.1% formic acid (FA). A second aliquot was also analyzed using acidic positive ion conditions, however it was chromatographically optimized for more hydrophobic compounds. In this method, the extract was gradient eluted from the same afore mentioned C18 column using methanol, acetonitrile, water, 0.05% PFPA and 0.01% FA and was operated at an overall higher organic content. A third aliquot was analyzed using basic negative ion optimized conditions using a separate dedicated C 18 column. The basic extracts were gradient eluted from the column using methanol and water, however with 6.5 mM Ammonium Bicarbonate at pH 8. […] The MS analysis alternated between MS and data-dependent MSn scans using dynamic exclusion. The scan range varied slighted between methods but covered 70-1000 m/z.
Data Extraction and Compound Identification: Raw data was extracted, peak-identified and QC processed using Metabolon's hardware and software. The systems were based on a web-service platform utilizing Microsoft's .NET technologies, which ran on high-performance application servers and fiber-channel storage arrays in clusters to provide active failover and load-balancing. Compounds were identified by comparison to library entries of purified standards or recurrent unknown entities.

[3] = bottlenose dolphin (Tursiops truncatus), in vivo, 3 weeks
[4] = bottlenose dolphin (Tursiops truncatus), in vivo, 6 weeks
[5] = bottlenose dolphin (Tursiops truncatus), in vivo, 12 weeks
[6] = bottlenose dolphin (Tursiops truncatus), in vivo, 18 weeks
[7] = bottlenose dolphin (Tursiops truncatus), in vivo, 24 weeks
[8] = Group A dolphins, modified diet, proportional to value at outset of study

## CCCCCCCCCCCCCCCCCCCCCC(=O)O [Behenic acid]
[1]; Group A dolphins, modified diet, week 3
  Serum fatty acids (%): 0.21 ± 0.06%
[1]; Group A dolphins, modified diet, week 6
  Serum fatty acids (%): 0.25 ± 0.07%
[1]; Group A dolphins, modified diet, week 12
  Serum fatty acids (%): 0.28 ± 0.06%
[1]; Group A dolphins, modified diet, week 18
  Serum fatty acids (%): 0.26 ± 0.04%
[1]; Group A dolphins, modified diet, week 24
  Serum fatty acids (%): 0.29 ± 0.04%

## CCCCCCCCCCCCCCCCC(=O)O [Heptadecanoic acid, heptadecanoic acid]
[1]; [3]
  Serum fatty acids (%): 0.5 ± 0.2%
[1]; [4]
  Serum fatty acids (%): 0.5 ± 0.1%
[1]; [5]
  Serum fatty acids (%): 0.7 ± 0.3%
[1]; [6]
  Serum fatty acids (%): 0.8 ± 0.4%
[1]; [7]
  Serum fatty acids (%): 0.7 ± 0.2%
[1]; in vivo
  serum levels compared to week 0: higher
[2]; [8]
  serum concentration 6 wk / 0 wk: 1.25
  serum concentration 12 wk / 0 wk: 1.65
  serum concentration 18 wk / 0 wk: 1.72
  serum concentration 24 wk / 0 wk: 1.21

## CCCCCCCCCCCCCCC(=O)O [pentadecanoate (15:0), pentadecanoate]
[2]; in vivo
  serum concentration 6 wk / 0 wk: 1.01
  serum concentration 12 wk / 0 wk: 1.27
  serum concentration 18 wk / 0 wk: 1.42
  serum concentration 24 wk / 0 wk: 0.97

## CCCCC/C=C\C/C=C\C/C=C\C/C=C\CCCC(=O)O [Arachidonic acid, (5Z,8Z,11Z,14Z)-icosa-5,8,11,14-tetraenoic acid]
[1]; [3]
  Serum fatty acids (%): 6 ± 2%
[1]; [4]
  Serum fatty acids (%): 7 ± 2%
[1]; [5]
  Serum fatty acids (%): 10 ± 4%
[1]; [6]
  Serum fatty acids (%): 10 ± 3%
[1]; [7]
  Serum fatty acids (%): 10 ± 3%
[2]; [4]
  serum concentration 6 wk / 0 wk: 1.19
[2]; [5]
  serum concentration 12 wk / 0 wk: 1.62
[2]; [6]
  serum concentration 18 wk / 0 wk: 1.5
[2]; [7]
  serum concentration 24 wk / 0 wk: 1.19

## CCCCCC/C=C\CCCCCCCC(=O)O [palmitoleate (16:ln7), palmitoleate]
[2]; in vivo
  serum concentration 6 wk / 0 wk: 0.85
  serum concentration 12 wk / 0 wk: 0.99
  serum concentration 18 wk / 0 wk: 0.76
  serum concentration 24 wk / 0 wk: 0.54
